The values that follow come from patent EP4813991A1 (iLeadBMS Co., Ltd., priority 2023, dated 2025).

For experiment [1], the system named is MDA-MB-231 breast cancer cells. As to the kind of experiment: Proliferation inhibitory activity assay against MDA-MB-231 breast cancer cells. The format is cell-based. The conditions noted are these: Homo sapiens, 72 hours, CellTiter Glo, relative IC50. An outline of the steps:
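Cells grown in L-15 with 10% FBS at 37 °C, 0% CO2, then exposed next day to compounds at 9 concentrations (DMSO vehicle) for 72 h. Viability read by CellTiter Glo luminescence; relative IC50 from dose-response curve fit.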
(ATP-based viability assays read luminescence as a measure of living cells.)

The next experiment addresses CDK2 (Homo sapiens, UniProt P24941). Kind of experiment: CDK2 kinase inhibitory activity assay and selectivity over CDK12. The conditions noted are these: for IC50: kinase reaction 120 minutes, 33P-gamma-ATP; for CDK2/CDK12: ratio of CDK2 IC50 to CDK12 IC50. The format is biochemical. As to the method:
(§1) Before initiating the CDK1 and CDK2 kinase reactions, each Example compound was dissolved and diluted in DMSO as a solvent across 9 concentration ranges at room temperature. The diluted solutions were then incubated with a mixture of kinase and substrate (and cofactors, if required) for 20 minutes. Next, radioisotope-labeled ATP (^33P-gamma-ATP) was added to proceed with the kinase reaction at room temperature for 120 minutes. After the reaction was completed, the reaction mixture was transferred to a filter paper that binds the radioisotope-labeled catalytic product (^33P-substrate). Unreacted ^33P-ATP was removed by washing with 0.75 % phosphoric acid, and then the radioactive phosphorylated substrate remaining on the filter paper was measured. Kinase activity data were expressed as a percentage of the kinase activity remaining in the test sample compared to a DMSO control group. The half-maximal inhibitory concentration (IC50) for each kinase was calculated using Prism software.
(§2) The CDK1 and CDK2 kinase inhibitory activities of the Example compounds measured by the above method were evaluated according to the following criteria, and the results are presented in Table 14.

In a further experiment the target is CDK13 (Homo sapiens, UniProt Q14004). As to the kind of experiment: CDK13 kinase inhibitory activity assay (33P-ATP filter binding). The format is biochemical. In outline: (§3)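 Radiometric filter-binding read-out: after 20 min compound–enzyme/substrate pre-incubation across 9 concentrations, reaction started with ^33P-γ-ATP and run 120 min at room temperature. Filter-bound ^33P-substrate measured after 0.75 % phosphoric acid washes; remaining activity versus DMSO gives IC50.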

For experiment [2], the target named is T1, CDK12 (Homo sapiens, UniProt Q9NYV4). As to the kind of experiment: CDK12 kinase inhibitory activity assay (33P-ATP filter binding). It is filed as biochemical. The settings on record: kinase reaction 120 minutes, 33P-gamma-ATP; read-out: CDK12 IC50. An outline of the steps: as §3
For another experiment, the target named is CDK1 (Homo sapiens, UniProt P06493). Kind of experiment: CDK1 kinase inhibitory activity assay and selectivity over CDK12. The settings on record: for IC50: kinase reaction 120 minutes, 33P-gamma-ATP; for CDK1/CDK12: ratio of CDK1 IC50 to CDK12 IC50. The format is biochemical. As to the method:
as §1, §2

In experiment [3] the target is T1, CDK12. As to the kind of experiment: Cellular CDK12 inhibitory activity assay (Ser2 phosphorylation of RNA polymerase II subunit B1 CTD in MDA-MB-231 cells). It is filed as cell-based. The settings on record: MDA-MB-231 cells, 6 hours treatment; read-out: pRpbl CTD S2 IC50. Further details: using MDA-MB-231 breast cancer cells; endogenous in cells; host or cells: MDA-MB-231. In outline:
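MDA-MB-231 cells in L-15 with 10 % FBS were treated with compound at 9 concentrations for 6 h at 37 °C, 0 % CO2. In-Cell Western read phospho-Ser2 and total RNA polymerase II CTD on a Li-COR Odyssey; IC50 from 4-parameter dose-response fit.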

The mark [4] stands for this setting: kinase reaction 120 minutes, 33P-gamma-ATP, read-out: CDK13 IC50.

Read-outs that look alike come from different tables or passages of the source.

Sequence of CDK1 (P06493 whole entry, species assumed): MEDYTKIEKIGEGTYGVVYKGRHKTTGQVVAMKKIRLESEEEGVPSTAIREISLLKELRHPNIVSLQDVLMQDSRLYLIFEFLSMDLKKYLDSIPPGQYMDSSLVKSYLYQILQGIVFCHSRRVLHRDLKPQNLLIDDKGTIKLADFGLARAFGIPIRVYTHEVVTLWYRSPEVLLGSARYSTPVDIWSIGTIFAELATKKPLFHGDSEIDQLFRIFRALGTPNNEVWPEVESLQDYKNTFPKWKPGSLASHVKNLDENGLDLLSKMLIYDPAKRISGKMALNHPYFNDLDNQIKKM
Sequence of CDK1 (P14635 whole entry partner, species assumed): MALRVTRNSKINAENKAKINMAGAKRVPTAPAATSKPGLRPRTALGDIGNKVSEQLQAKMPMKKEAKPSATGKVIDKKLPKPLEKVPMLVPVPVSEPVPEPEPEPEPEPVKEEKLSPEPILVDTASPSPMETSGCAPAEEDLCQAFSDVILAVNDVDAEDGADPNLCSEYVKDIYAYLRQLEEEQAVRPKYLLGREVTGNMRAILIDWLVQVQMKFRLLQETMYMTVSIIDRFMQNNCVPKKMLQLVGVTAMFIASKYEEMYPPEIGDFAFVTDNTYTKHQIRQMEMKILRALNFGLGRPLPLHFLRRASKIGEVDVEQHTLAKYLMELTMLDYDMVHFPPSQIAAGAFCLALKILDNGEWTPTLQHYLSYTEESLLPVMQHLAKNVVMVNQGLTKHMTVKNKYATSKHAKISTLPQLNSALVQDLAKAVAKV
Sequence of CDK13 (Q14004 whole entry, species assumed): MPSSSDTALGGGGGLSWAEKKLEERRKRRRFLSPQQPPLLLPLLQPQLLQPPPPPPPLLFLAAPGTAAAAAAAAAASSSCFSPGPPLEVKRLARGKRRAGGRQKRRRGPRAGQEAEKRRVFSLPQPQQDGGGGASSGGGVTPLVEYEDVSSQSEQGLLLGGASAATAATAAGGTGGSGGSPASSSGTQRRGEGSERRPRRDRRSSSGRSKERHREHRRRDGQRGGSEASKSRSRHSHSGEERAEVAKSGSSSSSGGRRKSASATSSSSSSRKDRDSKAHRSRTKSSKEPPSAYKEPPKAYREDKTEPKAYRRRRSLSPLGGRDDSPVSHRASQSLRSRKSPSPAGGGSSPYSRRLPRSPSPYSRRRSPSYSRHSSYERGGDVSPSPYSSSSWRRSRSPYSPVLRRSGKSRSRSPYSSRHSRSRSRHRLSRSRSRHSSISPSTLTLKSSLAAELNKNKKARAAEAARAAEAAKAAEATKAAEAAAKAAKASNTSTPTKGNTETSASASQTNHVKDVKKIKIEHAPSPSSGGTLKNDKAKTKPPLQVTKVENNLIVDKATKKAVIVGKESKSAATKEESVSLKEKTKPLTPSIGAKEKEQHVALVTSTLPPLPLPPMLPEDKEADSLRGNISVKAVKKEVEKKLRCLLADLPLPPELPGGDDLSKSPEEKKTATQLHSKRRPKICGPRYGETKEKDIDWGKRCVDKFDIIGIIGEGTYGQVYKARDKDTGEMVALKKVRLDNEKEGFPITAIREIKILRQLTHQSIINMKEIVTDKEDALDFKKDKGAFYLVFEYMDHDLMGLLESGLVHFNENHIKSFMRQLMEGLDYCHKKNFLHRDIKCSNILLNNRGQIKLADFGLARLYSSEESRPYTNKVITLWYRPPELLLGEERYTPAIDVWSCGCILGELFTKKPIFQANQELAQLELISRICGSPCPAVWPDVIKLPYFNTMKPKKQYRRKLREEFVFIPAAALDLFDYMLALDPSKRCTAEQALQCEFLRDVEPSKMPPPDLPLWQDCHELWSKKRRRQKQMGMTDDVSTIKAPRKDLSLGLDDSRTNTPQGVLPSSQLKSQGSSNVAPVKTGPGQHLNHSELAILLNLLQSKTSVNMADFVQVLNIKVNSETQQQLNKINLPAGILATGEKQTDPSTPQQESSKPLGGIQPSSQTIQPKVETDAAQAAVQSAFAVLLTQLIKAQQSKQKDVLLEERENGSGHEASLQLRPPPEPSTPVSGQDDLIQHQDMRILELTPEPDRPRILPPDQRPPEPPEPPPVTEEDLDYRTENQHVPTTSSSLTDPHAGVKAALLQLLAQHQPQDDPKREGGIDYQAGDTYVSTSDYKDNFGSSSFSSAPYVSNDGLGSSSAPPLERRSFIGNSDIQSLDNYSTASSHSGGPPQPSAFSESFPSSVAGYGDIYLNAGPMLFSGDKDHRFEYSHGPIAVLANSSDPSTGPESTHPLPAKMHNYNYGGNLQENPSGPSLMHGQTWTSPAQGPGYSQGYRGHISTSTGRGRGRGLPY
Sequence of CDK13 (O75909 whole entry partner, species assumed): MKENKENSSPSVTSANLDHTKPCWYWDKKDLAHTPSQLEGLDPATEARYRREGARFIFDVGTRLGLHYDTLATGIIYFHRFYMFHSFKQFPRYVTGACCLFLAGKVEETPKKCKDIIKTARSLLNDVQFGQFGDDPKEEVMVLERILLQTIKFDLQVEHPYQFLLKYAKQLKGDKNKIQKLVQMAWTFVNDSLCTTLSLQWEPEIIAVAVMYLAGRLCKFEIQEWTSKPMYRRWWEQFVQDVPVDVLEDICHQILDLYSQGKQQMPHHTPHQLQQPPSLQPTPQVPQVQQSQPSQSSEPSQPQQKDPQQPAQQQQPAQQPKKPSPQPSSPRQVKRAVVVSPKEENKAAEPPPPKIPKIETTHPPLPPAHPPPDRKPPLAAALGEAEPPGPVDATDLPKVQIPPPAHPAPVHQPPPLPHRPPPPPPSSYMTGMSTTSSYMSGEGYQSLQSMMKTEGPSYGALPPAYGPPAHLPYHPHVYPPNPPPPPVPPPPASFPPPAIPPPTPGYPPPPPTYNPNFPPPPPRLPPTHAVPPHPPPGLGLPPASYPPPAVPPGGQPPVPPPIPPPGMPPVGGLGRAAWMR
T1 sequence (Q9NYV4 whole entry, species assumed): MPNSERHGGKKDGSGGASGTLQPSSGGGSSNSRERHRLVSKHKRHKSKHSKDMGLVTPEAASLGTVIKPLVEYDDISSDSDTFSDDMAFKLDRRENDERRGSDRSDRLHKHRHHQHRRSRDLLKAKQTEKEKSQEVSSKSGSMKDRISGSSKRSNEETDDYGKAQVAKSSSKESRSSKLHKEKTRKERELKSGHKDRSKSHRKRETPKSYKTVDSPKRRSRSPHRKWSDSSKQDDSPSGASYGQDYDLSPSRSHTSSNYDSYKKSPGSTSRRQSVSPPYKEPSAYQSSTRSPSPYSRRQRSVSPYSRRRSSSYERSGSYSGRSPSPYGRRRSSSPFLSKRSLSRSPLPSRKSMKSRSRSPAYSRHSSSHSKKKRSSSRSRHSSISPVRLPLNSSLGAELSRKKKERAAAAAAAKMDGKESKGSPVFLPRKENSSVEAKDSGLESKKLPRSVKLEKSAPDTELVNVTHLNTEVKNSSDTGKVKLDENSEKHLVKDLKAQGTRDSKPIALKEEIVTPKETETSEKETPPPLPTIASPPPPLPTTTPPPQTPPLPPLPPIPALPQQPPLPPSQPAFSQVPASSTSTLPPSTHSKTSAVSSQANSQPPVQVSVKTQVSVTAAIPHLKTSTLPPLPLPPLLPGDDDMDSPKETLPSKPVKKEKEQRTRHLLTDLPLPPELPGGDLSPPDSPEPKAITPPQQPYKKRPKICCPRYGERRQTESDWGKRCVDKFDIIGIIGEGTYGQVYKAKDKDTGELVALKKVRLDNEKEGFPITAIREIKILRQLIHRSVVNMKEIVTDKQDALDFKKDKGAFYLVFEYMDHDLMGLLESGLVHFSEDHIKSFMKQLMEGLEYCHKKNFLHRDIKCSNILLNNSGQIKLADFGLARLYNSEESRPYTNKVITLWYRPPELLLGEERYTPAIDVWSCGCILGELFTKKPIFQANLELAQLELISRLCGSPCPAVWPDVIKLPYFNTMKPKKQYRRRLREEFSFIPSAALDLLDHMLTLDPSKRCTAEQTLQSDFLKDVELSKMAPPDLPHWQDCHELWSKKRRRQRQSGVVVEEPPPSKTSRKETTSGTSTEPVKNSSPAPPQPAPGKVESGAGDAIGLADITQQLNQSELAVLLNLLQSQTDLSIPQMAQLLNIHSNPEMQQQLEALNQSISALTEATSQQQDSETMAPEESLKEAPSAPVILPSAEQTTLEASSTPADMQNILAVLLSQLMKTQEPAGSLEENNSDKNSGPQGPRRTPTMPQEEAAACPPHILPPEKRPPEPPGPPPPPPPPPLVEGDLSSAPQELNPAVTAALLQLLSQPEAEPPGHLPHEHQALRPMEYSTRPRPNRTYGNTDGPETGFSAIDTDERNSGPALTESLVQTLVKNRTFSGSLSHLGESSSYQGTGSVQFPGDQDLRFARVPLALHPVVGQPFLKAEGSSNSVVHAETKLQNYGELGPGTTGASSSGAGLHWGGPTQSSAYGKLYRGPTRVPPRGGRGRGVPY
T1 sequence (O75909 whole entry partner, species assumed): as the sequence (O75909 whole entry partner, species assumed) above

By IC50 is commonly meant the concentration that inhibits the measured activity by half. On to `N#CC1CCN(c2cc(NCc3nc4cc(Cl)c(Cl)cc4[nH]3)c3ncc(C(F)(F)F)n3n2)CC1` [Example 44, 1-(8-(((5,6-dichloro-1H-benzo[d]imidazol-2-yl)methyl)amino)-3-(trifluoromethyl)imidazo[1,2-b]pyridazin-6-yl)piperidine-4-carbonitrile], for which the IC50 in experiment [1] is at most 0.05 µM; against CDK2, above 1 µM; on CDK13 (setting [4]), 0.1 to 0.5 µM; at CDK12 [2] it was 0.1 to 0.5 µM; against CDK1, above 1 µM; on CDK12 [3] it was below 0.3 µM.

On to `CN1CC2(C1)CN(c1cc(NCc3nc4cc(Cl)c(Cl)cc4[nH]3)c3ncc(C(F)(F)F)n3n1)C2` [Example 46, N-((5,6-dichloro-1H-benzo[d]imidazol-2-yl)methyl)-6-(6-methyl-2,6-diazaspiro[3.3]heptan-2-yl)-3-(trifluoromethyl)imidazo[1,2-b]pyridazin-8-amine], for which the 50% inhibitory concentration (IC50) in experiment [1] is at most 0.05 µM; against CDK2, above 1 µM; on CDK13 (setting [4]), below 0.1 µM; on CDK12 [2], below 0.1 µM; on CDK1 it was above 1 µM; at CDK12 [3], below 0.3 µM. The CDK2/CDK12 result at CDK2 was “B (100-fold < CDK1/CDK12 or CDK2/CDK12 ≤ 500-fold)”.

Take `FC(F)(F)c1cnc2c(NCc3nc4cc(Cl)c(Cl)cc4[nH]3)cc(N3CCOCC3)nn12` [Example 68, N-((5,6-dichloro-1H-benzo[d]imidazol-2-yl)methyl)-6-morpholino-3-(trifluoromethyl)imidazo[1,2-b]pyridazin-8-amine]: the IC50 was at most 0.05 µM in experiment [1]; above 1 µM against CDK2; below 0.1 µM at CDK13 (setting [4]); 0.1 to 0.5 µM on CDK12 [2]; above 1 µM against CDK1; below 0.3 µM at CDK12 [3]. In addition, the CDK2/CDK12 entry on CDK2 was “C (CDK1/CDK12 or CDK2/CDK12 ≤ 100-fold)”. For the same compound, on CDK1, the CDK1/CDK12 entry was “C (CDK1/CDK12 or CDK2/CDK12 ≤ 100-fold)”.

`FC(F)(F)c1cnc2c(NCc3nc4ccccc4[nH]3)cc(N3CCOCC3)nn12` [Example 69, N-((1H-benzo[d]imidazol-2-yl)methyl)-6-morpholino-3-(trifluoromethyl)imidazo[1,2-b]pyridazin-8-amine]: the half-inhibitory concentration (IC50) in experiment [1] is 0.05 to 0.5 µM; against CDK2 it was above 1 µM; at CDK13 (setting [4]), below 0.1 µM; on CDK12 [2], below 0.1 µM; against CDK1, above 1 µM; on CDK12 [3], 0.3 to 3 µM. Besides, the CDK2/CDK12 result at CDK2 is “B (100-fold < CDK1/CDK12 or CDK2/CDK12 ≤ 500-fold)”. Also, the CDK1/CDK12 result on CDK1 is “B (100-fold < CDK1/CDK12 or CDK2/CDK12 ≤ 500-fold)”.

In the case of `COc1cc2nc(CNc3cc(N4CCOCC4)nn4c(C(F)(F)F)cnc34)[nH]c2cc1Cl` [Example 71, N-((6-chloro-5-methoxy-1H-benzo[d]imidazol-2-yl)methyl)-6-morpholino-3-(trifluoromethyl)imidazo[1,2-b]pyridazin-8-amine], the IC50 was at most 0.05 µM in experiment [1]; above 1 µM on CDK2; below 0.1 µM at CDK13 (setting [4]); below 0.1 µM at CDK12 [2]; above 1 µM against CDK1; below 0.3 µM at CDK12 [3]. Also, at CDK2, the CDK2/CDK12 result is recorded as “B (100-fold < CDK1/CDK12 or CDK2/CDK12 ≤ 500-fold)”. Moreover, the CDK1/CDK12 entry on CDK1 is reported as “B (100-fold < CDK1/CDK12 or CDK2/CDK12 ≤ 500-fold)”.

As to `Cc1cc2nc(CNc3cc(N4CCOCC4)nn4c(C(F)(F)F)cnc34)[nH]c2cc1C` [Example 72, N-((5,6-dimethyl-1H-benzo[d]imidazol-2-yl)methyl)-6-morpholino-3-(trifluoromethyl)imidazo[1,2-b]pyridazin-8-amine], the IC50 in experiment [1] is at most 0.05 µM; against CDK2, above 1 µM; on CDK13 (setting [4]), below 0.1 µM; at CDK12 [2], below 0.1 µM; on CDK1, above 1 µM; on CDK12 [3], below 0.3 µM. The CDK2/CDK12 entry at CDK2 is given as “A (CDK1/CDK12 or CDK2/CDK12 > 500-fold)”. For the same compound, the CDK1/CDK12 entry on CDK1 is recorded as “A (CDK1/CDK12 or CDK2/CDK12 > 500-fold)”.

Regarding `COc1cccc2[nH]c(CNc3cc(N4CCOCC4)nn4c(C(F)(F)F)cnc34)nc12` [Example 73, N-((4-methoxy-1H-benzo[d]imidazol-2-yl)methyl)-6-morpholino-3-(trifluoromethyl)imidazo[1,2-b]pyridazin-8-amine], the IC50 in experiment [1] was at most 0.05 µM; at CDK2 it was above 1 µM; on CDK13 (setting [4]) it was below 0.1 µM; at CDK12 [2], below 0.1 µM; against CDK1 it was above 1 µM; at CDK12 [3], 0.3 to 3 µM. Also, the CDK2/CDK12 entry on CDK2 is recorded as “A (CDK1/CDK12 or CDK2/CDK12 > 500-fold)”. Also, the CDK1/CDK12 result at CDK1 was “A (CDK1/CDK12 or CDK2/CDK12 > 500-fold)”.

Take `Cc1ccnc2[nH]c(CNc3cc(N4CCOCC4)nn4c(C(F)(F)F)cnc34)nc12` [Example 75, N-((7-methyl-3H-imidazo[4,5-b]pyridin-2-yl)methyl)-6-morpholino-3-(trifluoromethyl)imidazo[1,2-b]pyridazin-8-amine]: the IC50 in experiment [1] is 0.05 to 0.5 µM; against CDK2, above 1 µM; on CDK13 (setting [4]), below 0.1 µM; on CDK12 [2] it was below 0.1 µM; against CDK1, above 1 µM; at CDK12 [3], below 0.3 µM. Besides, the CDK2/CDK12 entry at CDK2 is recorded as “A (CDK1/CDK12 or CDK2/CDK12 > 500-fold)”. For the same compound, the CDK1/CDK12 result at CDK1 is recorded as “A (CDK1/CDK12 or CDK2/CDK12 > 500-fold)”.

For the compound `Fc1cccc2[nH]c(CNc3cc(N4CCOCC4)nn4c(C(F)(F)F)cnc34)nc12` [Example 76, N-((4-fluoro-1H-benzo[d]imidazol-2-yl)methyl)-6-morpholino-3-(trifluoromethyl)imidazo[1,2-b]pyridazin-8-amine], the IC50 was at most 0.05 µM in experiment [1]; above 1 µM against CDK2; below 0.1 µM at CDK13 (setting [4]); below 0.1 µM on CDK12 [2]; above 1 µM against CDK1; below 0.3 µM on CDK12 [3]. The CDK2/CDK12 result on CDK2 was “A (CDK1/CDK12 or CDK2/CDK12 > 500-fold)”. The CDK1/CDK12 result on CDK1 is given as “A (CDK1/CDK12 or CDK2/CDK12 > 500-fold)”.

Turning to `Fc1ccc2[nH]c(CNc3cc(N4CCOCC4)nn4c(C(F)(F)F)cnc34)nc2c1` [Example 77, N-((5-fluoro-1H-benzo[d]imidazol-2-yl)methyl)-6-morpholino-3-(trifluoromethyl)imidazo[1,2-b]pyridazin-8-amine], the half-maximal inhibitory concentration (IC50) in experiment [1] was at most 0.05 µM; against CDK2, above 1 µM; on CDK13 (setting [4]), below 0.1 µM; at CDK12 [2], below 0.1 µM; at CDK1, above 1 µM; at CDK12 [3], below 0.3 µM. In addition, the CDK2/CDK12 result at CDK2 is “B (100-fold < CDK1/CDK12 or CDK2/CDK12 ≤ 500-fold)”. For the same compound, the CDK1/CDK12 result on CDK1 is on record as “A (CDK1/CDK12 or CDK2/CDK12 > 500-fold)”.

As to `O=C(CO)NC1CCN(c2cc(NCc3nc4cc(Cl)c(Cl)cc4[nH]3)c3ncc(C(F)(F)F)n3n2)CC1` [Example 115, N-(1-(8-(((5,6-dichloro-1H-benzo[d]imidazol-2-yl)methyl)amino)-3-(trifluoromethyl)imidazo[1,2-b]pyridazin-6-yl)piperidin-4-yl)-2-hydroxyacetamide], the IC50 in experiment [1] was at most 0.05 µM; against CDK2, above 1 µM; at CDK13 it was below 0.1 µM; at CDK12 [2], below 0.1 µM; at CDK1, above 1 µM; on CDK12 [3] it was below 0.3 µM. Further, the CDK2/CDK12 entry at CDK2 is recorded as “B (100-fold < CDK1/CDK12 or CDK2/CDK12 ≤ 500-fold)”. Moreover, the CDK1/CDK12 result at CDK1 is recorded as “B (100-fold < CDK1/CDK12 or CDK2/CDK12 ≤ 500-fold)”.
